Test results from US7632850B2, “Arylalkylcarbamate derivatives and production thereof” (Sanofi-aventis, priority 2003, dated 2009).

Tests used:
[1] = target: T1, FAAH (Fatty Acid Amide Hydrolase) (Mus musculus, UniProt O08914); test: radioenzymatic assay of anandamide hydrolysis by FAAH (mouse brain membrane homogenates); assay type: biochemical; settings: concentration inhibiting by 50% the control enzyme activity of FAAH; mouse brain membranes, 10 μM anandamide, 15 minutes at 25° C.
T1 construct: Membrane homogenates are prepared at the time of use by homogenizing the tissues in a Polytron; from tissue; host or cells: mouse brain (minus the cerebellum), membrane homogenate
T1 sequence (O08914 1-579): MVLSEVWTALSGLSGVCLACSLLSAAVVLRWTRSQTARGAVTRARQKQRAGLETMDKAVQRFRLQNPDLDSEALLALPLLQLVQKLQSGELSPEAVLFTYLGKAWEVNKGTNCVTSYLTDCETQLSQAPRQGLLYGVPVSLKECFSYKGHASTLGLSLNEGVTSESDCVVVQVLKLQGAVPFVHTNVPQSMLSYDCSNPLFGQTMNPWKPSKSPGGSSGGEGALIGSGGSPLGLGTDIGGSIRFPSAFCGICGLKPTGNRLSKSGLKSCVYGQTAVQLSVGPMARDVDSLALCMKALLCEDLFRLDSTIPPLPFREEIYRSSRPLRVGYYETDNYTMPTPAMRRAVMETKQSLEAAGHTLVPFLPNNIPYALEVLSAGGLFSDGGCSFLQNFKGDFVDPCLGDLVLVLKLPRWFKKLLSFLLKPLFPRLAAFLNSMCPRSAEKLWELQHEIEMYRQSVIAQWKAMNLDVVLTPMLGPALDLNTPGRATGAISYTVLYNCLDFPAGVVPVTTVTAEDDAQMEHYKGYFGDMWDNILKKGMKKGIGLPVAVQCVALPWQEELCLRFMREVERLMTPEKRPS
Method: The compounds of the invention were subjected to pharmacological tests permitting determination of their inhibitory effect on the enzyme FAAH (Fatty Acid Amide Hydrolase).
Accordingly, mouse brains (minus the cerebellum) are removed and stored at −80° C. Membrane homogenates are prepared at the time of use by homogenizing the tissues in a Polytron in a 10 mM Tris HCl buffer (pH 8.0) containing 150 mM NaCl and 1 mM EDTA. The enzyme reaction is subsequently conducted in 70 μl of buffer, containing bovine serum albumin without fatty acids (1 mg/ml). In succession, the test compounds, at various concentrations, anandamide [ethanolamine 1-^3H] (specific activity: 15-20 Ci/mmol) diluted to 10 μM with cold anandamide, and the membrane preparation (400 μg of frozen tissue per assay) are added. After 15 minutes at 25° C., the enzyme reaction is terminated by adding 140 μl of chloroform/methanol. (2:1). The mixture is stirred for 10 minutes then centrifuged for 15 minutes at 3500 g. An aliquot (30 μl) of the aqueous phase, containing the ethanolamine [1-^3H], is counted by liquid scintillation.

male OF1 mice = test: analgesia test: abdominal stretches induced by PBQ (phenylbenzoquinone) i.p.; assay type: in vivo
Method: The in vivo activity of the compounds of the invention was evaluated in an analgesia test. Accordingly, intraperitoneal (i.p.) administration of PBQ (phenylbenzoquinone, 2 mg/kg in a 0.9% sodium chloride solution containing 5% of ethanol) to male OF1 mice weighing 25 to 30 g causes abdominal stretches, on average 30 twists or contractions during the period from 5 to 15 minutes after injection. The test compounds are administered orally in suspension in Tween 80 at 0.5%, 60 minutes or 120 minutes before the administration of PBQ.

Row | Compound | melting point [°C] | IC50 [1] [nM] | Reduction in number of stretches (%) (male OF1 mice; (a) 1 mg/kg p.o. at 2 hours) | Reduction in number of stretches (%) (male OF1 mice; (b) 3 mg/kg p.o. at 1 hour)
1 | CNC(=O)COC(=O)NCc1ccc(-c2ccccn2)cc1 [Compound 81, 2-(methylamino)-2-oxoethyl 4-pyridin-2-ylbenzylcarbamate] | 151 to 153 | – | – | –
2 | CNC(=O)COC(=O)NCCc1ccc(-c2ccc(F)cc2)cc1F [Compound 141, 2-(methylamino)-2-oxoethyl 2-(3,4′-difluoro-1,1′biphenyl-4-yl)ethylcarbamate] | 164 to 166 | – | – | –
3 | CNC(=O)COC(=O)NCCc1ccc(C(F)(F)F)cc1 [Compound 125, 2-(methylamino)-2-oxoethyl 2-[4-(trifluoromethyl)phenyl]ethylcarbamate] | 140 to 142 | – | – | –
4 | CNC(=O)COC(=O)NCCc1ccc(-c2cccc(C#N)c2)cc1 [Compound 171, 2-(methylamino)-2-oxoethyl 2-(3′-cyano-1,1′-biphenyl-4-yl)ethylcarbamate] | 157 to 159 | 108 | −51% (a) | –
5 | CNC(=O)COC(=O)NCCc1ccc(-c2ccc(F)c(Cl)c2)cc1 [Compound 192, 2-(methylamino)-2-oxoethyl 2-(3′-chloro-4′-fluoro-1,1′-biphenyl-4-yl)ethylcarbamate] | 178 to 180 | 102 | −43% (a) | –
6 | CNC(=O)COC(=O)NCc1ccc(-c2ccc(F)cc2)cc1Cl [Compound 9, 2-(methylamino)-2-oxoethyl (3-chloro-4′-fluoro-1,1′-biphenyl-4-yl)methylcarbamate] | 170 to 172 | – | – | –
7 | NC(=O)COC(=O)NCc1ccc(-n2cnc(-c3ccccc3)c2)cc1 [Compound 84, 2-amino-2-oxoethyl [4-(4-phenyl-1H-imidazol-1-yl)phenyl]methylcarbamate] | 200 to 203 | – | – | –
8 | CNC(=O)COC(=O)NCCc1ccc(-c2ccc(Cl)cc2)cc1 [Compound 150, 2-(methylamino)-2-oxoethyl 2-(4′-chloro-1,1′-biphenyl-4-yl)ethylcarbamate] | 186 to 188 | 63 | – | −57% (b)
9 | CNC(=O)COC(=O)NCCc1ccc(-c2ccc(Cl)cc2Cl)cc1 [Compound 178] | 147 to 149 | 140 | – | −53% (b)
10 | CNC(=O)COC(=O)NCCc1ccc(Oc2ccccc2)cc1 [Compound 194] | 111 to 113 | 142 | – | −55% (b)
11 | NC(=O)COC(=O)NCCc1ccc(-n2ccc3cccnc32)cc1 [Compound 224] | 110 to 112 | – | – | –
12 | CNC(=O)COC(=O)NCc1ccc(-c2ccccc2)cc1 [Compound 1, 2-(methylamino)-2-oxoethyl 1,1′-biphenyl-4-ylmethylcarbamate] | 189 to 190 | – | – | –
13 | CNC(=O)COC(=O)NCCc1cccc(Oc2ccccc2)c1 [Compound 197, 2-(methylamino)-2-oxoethyl 2-(3-phenyloxyphenyl)ethylcarbamate] | 82 to 84 | – | – | –
14 | CNC(=O)COC(=O)NCCc1ccc(Oc2ccc(Cl)cc2)cc1 [Compound 196, 2-(methylamino)-2-oxoethyl 2-{4-[(4-chlorophenyl)oxy]phenyl}ethylcarbamate] | 133 to 135 | – | – | –
15 | NC(=O)COC(=O)NCC1(c2ccc(-c3ccc(F)cc3)cc2)CC1 [Compound 145, 2-amino-2-oxoethyl 1-(4′-fluoro-1,1′-biphenyl-4-yl)cyclopropylmethylcarbamate] | 139 to 141 | – | – | –
